# Measurements as given in PubChem BioAssay (NCI).
#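 GI50 = concentration required for 50% inhibition of growth. TGI denotes the concentration required for complete inhibition of growth.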
# Tests used:
# Assay in all cases: NCI tumour cell line growth inhibition, 384-well format
# ACHN renal = test system: ACHN renal
# SR leukemia = test system: SR leukemia
# A498 renal = test system: A498 renal
# SW-620 colon = test system: SW-620 colon
# OVCAR-8 ovarian = test system: OVCAR-8 ovarian
# PC-3 prostate = test system: PC-3 prostate
# HOP-92 NSCLC = test system: HOP-92 NSCLC
# T-47D breast = test system: T-47D breast
# SF-295 CNS = test system: SF-295 CNS
# NCI-H522 lung = test system: NCI-H522 lung
# MALME-3M melanoma = test system: MALME-3M melanoma
# NCI-H322M lung = test system: NCI-H322M lung
# IGROV1 ovarian = test system: IGROV1 ovarian
# SK-OV-3 ovarian = test system: SK-OV-3 ovarian
# OVCAR-5 ovarian = test system: OVCAR-5 ovarian
# CAKI-1 renal = test system: CAKI-1 renal
# HT29 colon = test system: HT29 colon
# SF-539 CNS = test system: SF-539 CNS
# SF-268 CNS = test system: SF-268 CNS
# NCI-H460 NSCLC = test system: NCI-H460 NSCLC
# OVCAR-4 ovarian = test system: OVCAR-4 ovarian
# SK-MEL-28 melanoma = test system: SK-MEL-28 melanoma
# SNB-19 CNS = test system: SNB-19 CNS
# BT-549 breast = test system: BT-549 breast
# SK-MEL-5 melanoma = test system: SK-MEL-5 melanoma
# MDA-MB-231 breast = test system: MDA-MB-231 breast
# HOP-62 NSCLC = test system: HOP-62 NSCLC
# OVCAR-3 ovarian = test system: OVCAR-3 ovarian
# A549 NSCLC = test system: A549 NSCLC
# RPMI-8226 leukemia = test system: RPMI-8226 leukemia
# K-562 leukemia = test system: K-562 leukemia
# LOX IMVI melanoma = test system: LOX IMVI melanoma
# HCC-2998 colon = test system: HCC-2998 colon
# MOLT-4 leukemia = test system: MOLT-4 leukemia
# NCI-H226 lung = test system: NCI-H226 lung
# NCI/ADR-RES ovarian = test system: NCI/ADR-RES ovarian
# MCF7 breast = test system: MCF7 breast
# UACC-62 melanoma = test system: UACC-62 melanoma
# HS 578T breast = test system: HS 578T breast
# UACC-257 melanoma = test system: UACC-257 melanoma
# 786-0 renal = test system: 786-0 renal
# HL-60(TB) leukemia = test system: HL-60(TB) leukemia
# NCI-H23 lung = test system: NCI-H23 lung
# TK-10 renal = test system: TK-10 renal
# KM12 colon = test system: KM12 colon
# DU-145 prostate = test system: DU-145 prostate
# UO-31 renal = test system: UO-31 renal
# M14 melanoma = test system: M14 melanoma
# MDA-MB-468 breast = test system: MDA-MB-468 breast
# CCRF-CEM leukemia = test system: CCRF-CEM leukemia
# EKVX NSCLC = test system: EKVX NSCLC
# HCT-15 colon = test system: HCT-15 colon
# COLO 205 colon = test system: COLO 205 colon
# SNB-75 CNS = test system: SNB-75 CNS
# RXF 393 renal = test system: RXF 393 renal
# MDA-MB-435 melanoma = test system: MDA-MB-435 melanoma
compound,measurement,setting,value
Cn1c(=O)n(-c2ccc(C(C)(C)C#N)cc2)c2c3cc(-c4cnc5ccccc5c4)ccc3ncc21,GI50,ACHN renal,< 10 nM
same,TGI,ACHN renal,> 100000 nM
same,GI50,SR leukemia,< 10 nM
same,TGI,SR leukemia,17.2 nM
same,GI50,A498 renal,< 10 nM
same,TGI,A498 renal,16.8 nM
same,GI50,SW-620 colon,28.2 nM
same,TGI,SW-620 colon,> 100000 nM
same,GI50,OVCAR-8 ovarian,< 10 nM
same,TGI,OVCAR-8 ovarian,> 100000 nM
same,GI50,PC-3 prostate,< 10 nM
same,TGI,PC-3 prostate,2110 nM
same,GI50,HOP-92 NSCLC,< 10 nM
same,TGI,HOP-92 NSCLC,64.2 nM
same,GI50,T-47D breast,< 10 nM
same,TGI,T-47D breast,19.7 nM
same,GI50,SF-295 CNS,< 10 nM
same,TGI,SF-295 CNS,31.5 nM
same,GI50,NCI-H522 lung,10.4 nM
same,TGI,NCI-H522 lung,237 nM
same,GI50,MALME-3M melanoma,< 10 nM
same,TGI,MALME-3M melanoma,23 nM
same,GI50,NCI-H322M lung,12.1 nM
same,TGI,NCI-H322M lung,2560 nM
same,GI50,IGROV1 ovarian,< 10 nM
same,TGI,IGROV1 ovarian,28.6 nM
same,GI50,SK-OV-3 ovarian,< 10 nM
same,TGI,SK-OV-3 ovarian,60.2 nM
same,GI50,OVCAR-5 ovarian,13.3 nM
same,TGI,OVCAR-5 ovarian,298 nM
same,GI50,CAKI-1 renal,12.7 nM
same,TGI,CAKI-1 renal,> 100000 nM
same,GI50,HT29 colon,29.5 nM
same,TGI,HT29 colon,> 100000 nM
same,GI50,SF-539 CNS,< 10 nM
same,TGI,SF-539 CNS,707 nM
same,GI50,SF-268 CNS,19.4 nM
same,TGI,SF-268 CNS,3360 nM
same,GI50,NCI-H460 NSCLC,< 10 nM
same,TGI,NCI-H460 NSCLC,532 nM
same,GI50,OVCAR-4 ovarian,< 10 nM
same,TGI,OVCAR-4 ovarian,27.2 nM
same,GI50,SK-MEL-28 melanoma,13.5 nM
same,TGI,SK-MEL-28 melanoma,95 nM
same,GI50,SNB-19 CNS,40.8 nM
same,TGI,SNB-19 CNS,> 100000 nM
same,GI50,BT-549 breast,< 10 nM
same,TGI,BT-549 breast,62.8 nM
same,GI50,SK-MEL-5 melanoma,12.7 nM
same,TGI,SK-MEL-5 melanoma,41.1 nM
same,GI50,MDA-MB-231 breast,< 10 nM
same,TGI,MDA-MB-231 breast,> 100000 nM
same,GI50,HOP-62 NSCLC,< 10 nM
same,TGI,HOP-62 NSCLC,191 nM
same,GI50,OVCAR-3 ovarian,12.3 nM
same,TGI,OVCAR-3 ovarian,1700 nM
same,GI50,A549 NSCLC,< 10 nM
same,TGI,A549 NSCLC,1330 nM
same,GI50,RPMI-8226 leukemia,< 10 nM
same,GI50,K-562 leukemia,13.9 nM
same,TGI,K-562 leukemia,12800 nM
same,GI50,LOX IMVI melanoma,< 10 nM
same,TGI,LOX IMVI melanoma,69.8 nM
same,GI50,HCC-2998 colon,< 10 nM
same,TGI,HCC-2998 colon,480 nM
same,GI50,MOLT-4 leukemia,< 10 nM
same,TGI,MOLT-4 leukemia,86 nM
same,GI50,NCI-H226 lung,< 10 nM
same,TGI,NCI-H226 lung,62.3 nM
same,GI50,NCI/ADR-RES ovarian,29.7 nM
same,TGI,NCI/ADR-RES ovarian,8070 nM
same,GI50,MCF7 breast,< 10 nM
same,TGI,MCF7 breast,185 nM
same,GI50,UACC-62 melanoma,< 10 nM
same,TGI,UACC-62 melanoma,101 nM
same,GI50,HS 578T breast,< 10 nM
same,TGI,HS 578T breast,19.8 nM
same,GI50,UACC-257 melanoma,21.4 nM
same,TGI,UACC-257 melanoma,93.7 nM
same,GI50,786-0 renal,< 10 nM
same,TGI,786-0 renal,1190 nM
same,GI50,HL-60(TB) leukemia,104 nM
same,TGI,HL-60(TB) leukemia,1110 nM
same,GI50,NCI-H23 lung,34.5 nM
same,TGI,NCI-H23 lung,723 nM
same,GI50,TK-10 renal,23.9 nM
same,TGI,TK-10 renal,126 nM
same,GI50,KM12 colon,13.5 nM
same,TGI,KM12 colon,1290 nM
same,GI50,DU-145 prostate,< 10 nM
same,TGI,DU-145 prostate,> 100000 nM
same,GI50,UO-31 renal,19.6 nM
same,TGI,UO-31 renal,> 100000 nM
same,GI50,M14 melanoma,13.6 nM
same,TGI,M14 melanoma,599 nM
same,GI50,MDA-MB-468 breast,< 10 nM
same,TGI,MDA-MB-468 breast,30.4 nM
same,GI50,CCRF-CEM leukemia,< 10 nM
same,TGI,CCRF-CEM leukemia,103 nM
same,GI50,EKVX NSCLC,< 10 nM
same,TGI,EKVX NSCLC,85.1 nM
same,GI50,HCT-15 colon,< 10 nM
same,TGI,HCT-15 colon,> 100000 nM
same,GI50,COLO 205 colon,21.5 nM
same,TGI,COLO 205 colon,262 nM
same,GI50,SNB-75 CNS,< 10 nM
same,TGI,SNB-75 CNS,80.9 nM
same,GI50,RXF 393 renal,< 10 nM
same,TGI,RXF 393 renal,> 100000 nM
same,GI50,MDA-MB-435 melanoma,17.6 nM
same,TGI,MDA-MB-435 melanoma,492 nM
